# According to the supplement of paper PMC10307832:
# Legend:
# Assay in all cases: relative viability (nuclei count vs DMSO), 5 days (fraction); higher = more cells survive
# 201T = system: 201T
# Method in brief: (§1)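 Lung cancer cell lines in 1536-well plates got either a single drug or a fixed anchor-drug dose together with five library-drug doses (not always all listed) in √10 steps, by pin tool, on the day after seeding. Nuclei were counted after 5 days, and relative viability is the treated-to-vehicle ratio of nuclei counts. Values are medians of duplicate plates.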
# BEN = system: BEN
# Method in brief: as §1
# LU99A = system: LU99A
# Method in brief: as §1
# LCLC-97TM1 = system: LCLC-97TM1
# Method in brief: as §1
# NCI-H1975 = system: NCI-H1975
# Method in brief: as §1
# NCI-H1395 = system: NCI-H1395
# Method in brief: as §1
# H3255 = system: H3255
# Method in brief: as §1
# NCI-H358 = system: NCI-H358
# Method in brief: as §1
# COR-L 105 = system: COR-L 105
# Method in brief: as §1
# EPLC-272H = system: EPLC-272H
# Method in brief: as §1
# NCI-H2087 = system: NCI-H2087
# Method in brief: as §1
# PC-3 [JPC-3] = system: PC-3 [JPC-3]
# Method in brief: as §1
# HCC-827 = system: HCC-827
# Method in brief: as §1
# SW 1573 = system: SW 1573
# Method in brief: as §1
# EKVX = system: EKVX
# Method in brief: as §1
# NCI-H647 = system: NCI-H647
# Method in brief: as §1
# HCC-44 = system: HCC-44
# Method in brief: as §1
# HOP-62 = system: HOP-62
# Method in brief: as §1
# LOU-NH91 = system: LOU-NH91
# Method in brief: as §1
# NCI-H1666 = system: NCI-H1666
# Method in brief: as §1
# NCI-H2085 = system: NCI-H2085
# Method in brief: as §1
# NCI-H1437 = system: NCI-H1437
# Method in brief: as §1
compound,measurement,setting,value
NC(=O)Nc1cc(-c2cccc(F)c2)sc1C(=O)N[C@H]1CCCNC1 [AZD7762] + Cc1nc(NC(=O)N2CCC[C@H]2C(N)=O)sc1-c1ccnc(C(C)(C)C(F)(F)F)c1 [Alpelisib] (partner 2 µM),relative viability,201T; first compound 0.01 µM,1.01
same,relative viability,201T; first compound 0.03162 µM,1.05
same,relative viability,201T; first compound 0.1 µM,1.02
same,relative viability,201T; first compound 0.3162 µM,1.08
same,relative viability,201T; first compound 1 µM,1.11
same,relative viability,BEN; first compound 0.01 µM,1.21
same,relative viability,BEN; first compound 0.03162 µM,0.992
same,relative viability,BEN; first compound 0.1 µM,0.883
same,relative viability,BEN; first compound 0.3162 µM,1.06
same,relative viability,BEN; first compound 1 µM,0.845
same,relative viability,LU99A; first compound 0.01 µM,0.575
same,relative viability,LU99A; first compound 0.03162 µM,0.568
same,relative viability,LU99A; first compound 0.1 µM,0.543
same,relative viability,LU99A; first compound 0.3162 µM,0.514
same,relative viability,LU99A; first compound 1 µM,0.329
same,relative viability,LCLC-97TM1; first compound 0.01 µM,0.292
same,relative viability,LCLC-97TM1; first compound 0.03162 µM,0.272
same,relative viability,LCLC-97TM1; first compound 0.1 µM,0.314
same,relative viability,LCLC-97TM1; first compound 0.3162 µM,0.278
same,relative viability,LCLC-97TM1; first compound 1 µM,0.298
same,relative viability,NCI-H1975; first compound 0.01 µM,0.678
same,relative viability,NCI-H1975; first compound 0.03162 µM,0.585
same,relative viability,NCI-H1975; first compound 0.1 µM,0.579
same,relative viability,NCI-H1975; first compound 0.3162 µM,0.436
same,relative viability,NCI-H1975; first compound 1 µM,0.322
same,relative viability,NCI-H1395; first compound 0.01 µM,1.2
same,relative viability,NCI-H1395; first compound 0.03162 µM,1.1
same,relative viability,NCI-H1395; first compound 0.1 µM,1.16
same,relative viability,NCI-H1395; first compound 0.3162 µM,0.649
same,relative viability,NCI-H1395; first compound 1 µM,0.436
same,relative viability,H3255; first compound 0.01 µM,0.727
same,relative viability,H3255; first compound 0.03162 µM,0.63
same,relative viability,H3255; first compound 0.1 µM,0.634
same,relative viability,H3255; first compound 0.3162 µM,0.705
same,relative viability,H3255; first compound 1 µM,0.357
same,relative viability,NCI-H358; first compound 0.01 µM,0.819
same,relative viability,NCI-H358; first compound 0.03162 µM,0.964
same,relative viability,NCI-H358; first compound 0.1 µM,0.837
same,relative viability,NCI-H358; first compound 0.3162 µM,0.629
same,relative viability,NCI-H358; first compound 1 µM,0.33
same,relative viability,COR-L 105; first compound 0.01 µM,1.2
same,relative viability,COR-L 105; first compound 0.03162 µM,1.03
same,relative viability,COR-L 105; first compound 0.1 µM,0.92
same,relative viability,COR-L 105; first compound 0.3162 µM,0.847
same,relative viability,COR-L 105; first compound 1 µM,0.461
same,relative viability,EPLC-272H; first compound 0.01 µM,1.07
same,relative viability,EPLC-272H; first compound 0.03162 µM,1.1
same,relative viability,EPLC-272H; first compound 0.1 µM,1.13
same,relative viability,EPLC-272H; first compound 0.3162 µM,0.992
same,relative viability,EPLC-272H; first compound 1 µM,0.674
same,relative viability,NCI-H2087; first compound 0.01 µM,1.18
same,relative viability,NCI-H2087; first compound 0.03162 µM,1.08
same,relative viability,NCI-H2087; first compound 0.1 µM,1.45
same,relative viability,NCI-H2087; first compound 0.3162 µM,1.34
same,relative viability,NCI-H2087; first compound 1 µM,1.27
same,relative viability,PC-3 [JPC-3]; first compound 0.01 µM,0.998
same,relative viability,PC-3 [JPC-3]; first compound 0.03162 µM,1.03
same,relative viability,PC-3 [JPC-3]; first compound 0.1 µM,1.05
same,relative viability,PC-3 [JPC-3]; first compound 0.3162 µM,1.1
same,relative viability,PC-3 [JPC-3]; first compound 1 µM,0.897
same,relative viability,HCC-827; first compound 0.01 µM,1.01
same,relative viability,HCC-827; first compound 0.03162 µM,1.02
same,relative viability,HCC-827; first compound 0.1 µM,1
same,relative viability,HCC-827; first compound 0.3162 µM,0.985
same,relative viability,HCC-827; first compound 1 µM,0.659
same,relative viability,SW 1573; first compound 0.01 µM,0.885
same,relative viability,SW 1573; first compound 0.03162 µM,0.807
same,relative viability,SW 1573; first compound 0.1 µM,0.926
same,relative viability,SW 1573; first compound 0.3162 µM,1.08
same,relative viability,SW 1573; first compound 1 µM,0.647
same,relative viability,EKVX; first compound 0.01 µM,0.846
same,relative viability,EKVX; first compound 0.03162 µM,0.845
same,relative viability,EKVX; first compound 0.1 µM,0.805
same,relative viability,EKVX; first compound 0.3162 µM,0.787
same,relative viability,EKVX; first compound 1 µM,0.468
same,relative viability,NCI-H647; first compound 0.01 µM,1.28
same,relative viability,NCI-H647; first compound 0.03162 µM,1.02
same,relative viability,NCI-H647; first compound 0.1 µM,1.04
same,relative viability,NCI-H647; first compound 0.3162 µM,0.61
same,relative viability,NCI-H647; first compound 1 µM,0.104
same,relative viability,HCC-44; first compound 0.01 µM,0.818
same,relative viability,HCC-44; first compound 0.03162 µM,0.751
same,relative viability,HCC-44; first compound 0.1 µM,0.831
same,relative viability,HCC-44; first compound 0.3162 µM,0.755
same,relative viability,HCC-44; first compound 1 µM,0.952
same,relative viability,HOP-62; first compound 0.01 µM,0.918
same,relative viability,HOP-62; first compound 0.03162 µM,1.22
same,relative viability,HOP-62; first compound 0.1 µM,0.836
same,relative viability,HOP-62; first compound 0.3162 µM,1.04
same,relative viability,HOP-62; first compound 1 µM,1.36
same,relative viability,LOU-NH91; first compound 0.01 µM,0.731
same,relative viability,LOU-NH91; first compound 0.03162 µM,0.741
same,relative viability,LOU-NH91; first compound 0.1 µM,0.645
same,relative viability,LOU-NH91; first compound 0.3162 µM,0.612
same,relative viability,LOU-NH91; first compound 1 µM,0.478
same,relative viability,NCI-H1666; first compound 0.01 µM,1.12
same,relative viability,NCI-H1666; first compound 0.03162 µM,1.24
same,relative viability,NCI-H1666; first compound 0.1 µM,1.18
same,relative viability,NCI-H1666; first compound 0.3162 µM,1.02
same,relative viability,NCI-H1666; first compound 1 µM,0.75
same,relative viability,NCI-H2085; first compound 0.01 µM,1.06
same,relative viability,NCI-H2085; first compound 0.03162 µM,0.928
same,relative viability,NCI-H2085; first compound 0.1 µM,1.1
same,relative viability,NCI-H2085; first compound 0.3162 µM,1.06
same,relative viability,NCI-H2085; first compound 1 µM,0.782
same,relative viability,NCI-H1437; first compound 0.01 µM,0.995
same,relative viability,NCI-H1437; first compound 0.03162 µM,0.962
same,relative viability,NCI-H1437; first compound 0.1 µM,1
same,relative viability,NCI-H1437; first compound 0.3162 µM,1
same,relative viability,NCI-H1437; first compound 1 µM,1
